Test results from article PMC10746543, “Design principles for cyclin K molecular glue degraders” (Nature Chemical Biology, 2023).
Where “and” joins values, the source holds several entries; their conditions need not be identical. Identical values can stand only once. Like-named read-outs stand apart in the source and are kept apart here.

Legend:
[1] = molecular target: T1, CDK12–cyclin K and DDB1 (Homo sapiens, UniProt Q16531+Q9NYV4, K965R); test: TR-FRET ternary complex formation assay (compound titration); type: binding
T1 construct: His6–CDK12 (a.a. 713–1,052); full-length or beta-propeller B domain deletion (ΔBPB: a.a. 396–705 deleted) constructs of His6–DDB1ΔBPB, StrepII–Avi–DDB1, or His6–Spy–DDB1; made in house; host or cells: Trichoplusia ni High Five insect cells (baculovirus)
T1 sequence (Q9NYV4 713-1052 K965R): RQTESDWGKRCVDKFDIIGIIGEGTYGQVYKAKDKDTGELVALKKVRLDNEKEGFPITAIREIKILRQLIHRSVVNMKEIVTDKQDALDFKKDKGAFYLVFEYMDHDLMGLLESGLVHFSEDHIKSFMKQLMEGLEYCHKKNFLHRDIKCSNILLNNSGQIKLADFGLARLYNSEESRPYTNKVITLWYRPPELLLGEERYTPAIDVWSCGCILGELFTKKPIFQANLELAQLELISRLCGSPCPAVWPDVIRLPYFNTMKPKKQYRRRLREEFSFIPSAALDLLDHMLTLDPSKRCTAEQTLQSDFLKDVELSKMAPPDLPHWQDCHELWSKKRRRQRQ
T1 sequence (O75909 1-267 partner): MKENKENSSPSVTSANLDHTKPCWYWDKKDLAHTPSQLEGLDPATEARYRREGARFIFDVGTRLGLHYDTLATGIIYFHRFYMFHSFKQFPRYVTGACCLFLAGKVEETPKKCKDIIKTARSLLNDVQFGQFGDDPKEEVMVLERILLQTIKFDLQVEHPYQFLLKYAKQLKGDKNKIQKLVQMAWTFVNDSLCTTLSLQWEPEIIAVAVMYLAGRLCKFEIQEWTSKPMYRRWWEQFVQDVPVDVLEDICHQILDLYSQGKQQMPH
T1 sequence (Q16531 whole entry): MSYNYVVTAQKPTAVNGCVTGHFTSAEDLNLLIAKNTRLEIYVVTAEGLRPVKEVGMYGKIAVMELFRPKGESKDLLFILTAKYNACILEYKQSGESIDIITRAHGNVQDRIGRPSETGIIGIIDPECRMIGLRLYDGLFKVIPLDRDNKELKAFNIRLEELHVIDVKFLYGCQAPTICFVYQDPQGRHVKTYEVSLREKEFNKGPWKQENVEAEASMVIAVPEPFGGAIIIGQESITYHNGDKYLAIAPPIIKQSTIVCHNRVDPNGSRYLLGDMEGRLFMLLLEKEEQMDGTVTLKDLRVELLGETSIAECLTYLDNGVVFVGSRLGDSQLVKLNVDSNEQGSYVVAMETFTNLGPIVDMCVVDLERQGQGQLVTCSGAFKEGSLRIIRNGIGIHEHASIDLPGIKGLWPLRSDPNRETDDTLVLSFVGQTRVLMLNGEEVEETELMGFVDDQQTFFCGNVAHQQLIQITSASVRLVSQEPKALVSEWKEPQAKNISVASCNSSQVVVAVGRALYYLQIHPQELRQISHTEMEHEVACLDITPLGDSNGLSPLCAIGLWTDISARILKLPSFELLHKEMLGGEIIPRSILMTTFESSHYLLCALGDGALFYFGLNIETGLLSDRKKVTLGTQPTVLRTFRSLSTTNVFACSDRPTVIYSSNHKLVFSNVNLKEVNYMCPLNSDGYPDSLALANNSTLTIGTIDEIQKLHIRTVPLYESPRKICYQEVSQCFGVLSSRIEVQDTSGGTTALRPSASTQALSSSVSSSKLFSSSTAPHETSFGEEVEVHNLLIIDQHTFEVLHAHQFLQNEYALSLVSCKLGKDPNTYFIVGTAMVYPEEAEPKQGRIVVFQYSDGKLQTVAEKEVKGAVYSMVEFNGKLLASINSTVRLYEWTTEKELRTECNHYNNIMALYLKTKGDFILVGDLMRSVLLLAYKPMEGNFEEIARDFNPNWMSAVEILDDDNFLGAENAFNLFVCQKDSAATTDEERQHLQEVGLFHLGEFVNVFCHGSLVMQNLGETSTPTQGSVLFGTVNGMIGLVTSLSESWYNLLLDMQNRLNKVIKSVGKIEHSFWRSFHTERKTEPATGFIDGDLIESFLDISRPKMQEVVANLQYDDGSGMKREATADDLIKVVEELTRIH
How it was run: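 Read-out used a 70 μs delay to cut background fluorescence; TR-FRET signal taken as the 520 nm/490 nm emission ratio.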

[2] = tested on: cyclin K–eGFP degradation reporter; test: Cyclin K reporter stability analysis (dual-color cyclin K–eGFP reporter); type: cell-based, human; settings: for reporter assay signal (normalized): replicates
How it was run: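 Readout was the eGFP-to-mCherry geometric-mean ratio by flow cytometry, normalized to three DMSO controls, after 5 h drug exposure. Cells used were HEK293T–Cas9 expressing the dual-colour cyclin K–eGFP degradation reporter.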

[3] = molecular target: T2, CDK2–cyclin A (Homo sapiens, UniProt P24941); test: Lanthascreen kinase binding assay, CDK2
T2 construct: purchased Thermo Fisher
Experimental: Lanthascreen experiments were performed using commercially available reagents (Thermo Fisher) and according to the manufacturer’s instructions.

**Q.** Which results are given for `CC(C)c1nn(-c2c(Cl)cccc2Cl)c2nc(Cc3ccc(OCCO)cc3)[nH]c(=O)c12` [compound 21195]?
**A.** TR-FRET signal ([1]; compound concentration 0.468 nM): 0.2628 and 0.2699 and 0.216 and 0.239 and 0.2342 and 0.2245; TR-FRET signal ([1]; compound concentration 2.16 nM): 0.3464 and 0.3831 and 0.355 and 0.3843 and 0.3684 and 0.3664; TR-FRET signal ([1]; compound concentration 3.6 nM): 0.5968 and 0.6945 and 0.6556 and 0.7072 and 0.6869 and 0.6829; TR-FRET signal ([1]; compound concentration 7.92001 nM): 1.121 and 1.282 and 1.315 and 1.383 and 1.34 and 1.348; TR-FRET signal ([1]; compound concentration 15.84 nM): 1.693 and 2.27 and 2.427 and 2.5504 and 2.497; TR-FRET signal ([1]; compound concentration 30.96 nM): 2.9489 and 3.238 and 3.271 and 3.348 and 3.319 and 3.3062; TR-FRET signal ([1]; compound concentration 62.6401 nM): 3.288 and 3.494 and 3.577 and 3.452 and 3.519 and 3.526; TR-FRET signal ([1]; compound concentration 125.28 nM): 3.346 and 3.624 and 3.589 and 3.472 and 3.591 and 3.561; TR-FRET signal ([1]; compound concentration 244.8 nM): 3.392 and 3.7057 and 3.68 and 3.58 and 3.638 and 3.662; TR-FRET signal ([1]; compound concentration 993.601 nM): 3.425 and 3.678 and 3.687 and 3.61 and 3.695 and 3.669; TR-FRET signal ([1]; compound concentration 2001.6 nM): 3.544 and 3.666 and 3.468 and 3.558 and 3.691 and 3.74; EC50 ([1]; in vitro complex formation, 50 nM CDK12–cyclin K, 100 nM DDB1, text and figures, read-out: TR-FRET EC50): 12 ± 0.4 nM; EC50 ([1]; sheet MOESM7, read-out: log TR-FRET EC50 (converted)): 12 nM; EC50 ([1]; source data sheet correlations, read-out: TR-FRET EC50): 12 nM; reporter assay signal (normalized) ([2]; 2 nM): 0.9561 and 0.9287; reporter assay signal (normalized) ([2]; 3 nM): 0.9797 and 0.9734; reporter assay signal (normalized) ([2]; 4.5 nM): 0.9145 and 0.9397; reporter assay signal (normalized) ([2]; 7.68 nM): 0.9019 and 0.9312; reporter assay signal (normalized) ([2]; 22.8 nM): 0.769 and 0.8233; reporter assay signal (normalized) ([2]; 34.2 nM): 0.7674 and 0.787; reporter assay signal (normalized) ([2]; 51.3 nM): 0.6849 and 0.771; reporter assay signal (normalized) ([2]; 77 nM): 0.6566 and 0.7136; reporter assay signal (normalized) ([2]; 260 nM): 0.6047 and 0.6647; reporter assay signal (normalized) ([2]; 390 nM): 0.6094 and 0.6714; reporter assay signal (normalized) ([2]; 585 nM): 0.6094 and 0.6655; reporter assay signal (normalized) ([2]; 877 nM): 0.6086 and 0.6352; reporter assay signal (normalized) ([2]; 1970 nM): 0.5992 and 0.6495; reporter assay signal (normalized) ([2]; 2960 nM): 0.552 and 0.6731; reporter assay signal (normalized) ([2]; 4440 nM): 0.5937 and 0.62; reporter assay signal (normalized) ([2]; 6670 nM): 0.5457 and 0.6014; reporter assay signal (normalized) ([2]; 10000 nM): 0.5701 and 0.6031; cyclin K reporter degradation, result in words ([2]; HEK293T): potent degraders; DC50 ([2]; source data sheet correlations, read-out: DC50): 26 nM; Lanthascreen signal, sheet CDK2 ([3]; Compound 0.038147 nM, raw replicates, experiment r48-r58): 0.01114 and 0.01116; Lanthascreen signal, sheet CDK2 ([3]; Compound 0.038147 nM, raw replicates, experiment r72-r82): 0.02274 and 0.02249 and 0.02111; Lanthascreen signal, sheet CDK2 ([3]; Compound 0.152588 nM, raw replicates, experiment r48-r58): 0.01418 and 0.01279; Lanthascreen signal, sheet CDK2 ([3]; Compound 0.152588 nM, raw replicates, experiment r72-r82): 0.0215 and 0.0211 and 0.01988; Lanthascreen signal, sheet CDK2 ([3]; Compound 0.610352 nM, raw replicates, experiment r48-r58): 0.01088 and 0.01046; Lanthascreen signal, sheet CDK2 ([3]; Compound 0.610352 nM, raw replicates, experiment r72-r82): 0.01525 and 0.01498 and 0.01532; Lanthascreen signal, sheet CDK2 ([3]; Compound 1.02544 nM, raw replicates, experiment r1-r11): 0.008805 and 0.007055; Lanthascreen signal, sheet CDK2 ([3]; Compound 3.15521 nM, raw replicates, experiment r1-r11): 0.006794 and 0.006701; Lanthascreen signal, sheet CDK2 ([3]; Compound 4.57247 nM, experiment r25-r34): 0.009774; Lanthascreen signal, sheet CDK2 ([3]; Compound 9.46563 nM, raw replicates, experiment r1-r11): 0.005367 and 0.004658; Lanthascreen signal, sheet CDK2 ([3]; Compound 9.76563 nM, raw replicates, experiment r48-r58): 0.004922 and 0.004545; Lanthascreen signal, sheet CDK2 ([3]; Compound 9.76563 nM, raw replicates, experiment r72-r82): 0.008551 and 0.007922 and 0.008628; Lanthascreen signal, sheet CDK2 ([3]; Compound 13.7174 nM, experiment r25-r34): 0.006843; Lanthascreen signal, sheet CDK2 ([3]; Compound 31.5521 nM, raw replicates, experiment r1-r11): 0.003961 and 0.003619; Lanthascreen signal, sheet CDK2 ([3]; Compound 39.0625 nM, raw replicates, experiment r48-r58): 0.004317 and 0.004069; Lanthascreen signal, sheet CDK2 ([3]; Compound 39.0625 nM, raw replicates, experiment r72-r82): 0.008233 and 0.00742 and 0.007049; Lanthascreen signal, sheet CDK2 ([3]; Compound 41.1523 nM, experiment r25-r34): 0.005858; Lanthascreen signal, sheet CDK2 ([3]; Compound 99.3891 nM, raw replicates, experiment r1-r11): 0.003218 and 0.002962; Lanthascreen signal, sheet CDK2 ([3]; Compound 123.457 nM, experiment r25-r34): 0.005407; Lanthascreen signal, sheet CDK2 ([3]; Compound 156.25 nM, raw replicates, experiment r48-r58): 0.004055 and 0.004446; Lanthascreen signal, sheet CDK2 ([3]; Compound 156.25 nM, raw replicates, experiment r72-r82): 0.007121 and 0.006977 and 0.007061; Lanthascreen signal, sheet CDK2 ([3]; Compound 315.521 nM, raw replicates, experiment r1-r11): 0.003513 and 0.004201; Lanthascreen signal, sheet CDK2 ([3]; Compound 370.37 nM, experiment r25-r34): 0.005303; Lanthascreen signal, sheet CDK2 ([3]; Compound 625 nM, raw replicates, experiment r48-r58): 0.004058 and 0.004497; Lanthascreen signal, sheet CDK2 ([3]; Compound 625 nM, raw replicates, experiment r72-r82): 0.007299 and 0.007212 and 0.007465; Lanthascreen signal, sheet CDK2 ([3]; Compound 2500 nM, raw replicates, experiment r48-r58): 0.004147 and 0.004489; Lanthascreen signal, sheet CDK2 ([3]; Compound 2500 nM, raw replicates, experiment r72-r82): 0.007107 and 0.006983 and 0.006617; Lanthascreen signal, sheet CDK2 ([3]; Compound 3155.21 nM, raw replicates, experiment r1-r11): 0.004846 and 0.003852; Lanthascreen signal, sheet CDK2 ([3]; Compound 3333.33 nM, experiment r25-r34): 0.004706; Lanthascreen signal, sheet CDK2 ([3]; Compound 10000 nM, experiment r25-r34): 0.005121; Lanthascreen signal, sheet CDK2 ([3]; Compound 10000 nM, raw replicates, experiment r48-r58): 0.003844 and 0.004325; Lanthascreen signal, sheet CDK2 ([3]; Compound 10000 nM, raw replicates, experiment r72-r82): 0.007331 and 0.007604 and 0.008348; Lanthascreen signal, sheet CDK2 ([3]; Compound 10002 nM, raw replicates, experiment r1-r11): 0.002963 and 0.004615; IC50 ([3]; Supplementary Table 2, read-out: Lanthascreen IC50 [nM] CDK2): 3 nM
